What follows are molecules tested against RIPK1 (Homo sapiens (Human), UniProt Q13546) (assay: RIPK1-ADP-Glo Enzymatic Assay). Conditions: recombinant GST-RIPK1 kinase domain (residues 1-327), 25 nM, ten-point titration, 30 minutes pre-incubation.
RIPK1, sequence (Q13546 1-327): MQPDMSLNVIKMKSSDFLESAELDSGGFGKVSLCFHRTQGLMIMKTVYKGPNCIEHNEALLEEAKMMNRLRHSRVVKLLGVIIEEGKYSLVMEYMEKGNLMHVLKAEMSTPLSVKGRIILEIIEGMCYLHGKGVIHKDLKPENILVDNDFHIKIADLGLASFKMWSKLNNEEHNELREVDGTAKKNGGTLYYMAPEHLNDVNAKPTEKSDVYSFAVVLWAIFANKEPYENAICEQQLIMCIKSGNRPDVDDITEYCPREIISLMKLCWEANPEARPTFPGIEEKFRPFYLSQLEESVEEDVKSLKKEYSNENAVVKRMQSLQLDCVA
Format: biochemical
Description: The enzymatic activity of RIPK1 was measured using an assay derived from ADP-Glo kit (™Promega), which provides a luminescent-based ADP detection system. Specifically, the ADP generated by RIPK1 kinase was proportionally detected as luminescent signals in a homogenous fashion. In this context, the assessment of the inhibitory effect of small molecules (EC50) was measured by the effectiveness of the compounds to inhibit the ATP to ADP conversion by RIPK1.
In this assay, the potency (EC50) of each compound was determined from a ten-point (1:3 serial dilution: top compound concentration of 100000 nM) titration curve using the following outlined procedure. To each well of a white ProxiPlus 384 well-plate, 30 nL of compound (1% DMSO in final assay volume of 3 μL) was dispensed, followed by the addition of 2 μL of 1x assay buffer (25 mM Hepes 7.3, 20 mM MgCl2, 50 mM NaCl, 1 mM DTT, 0.005% Tween20, and 0.02% BSA) containing 37.5 nM of GST-RIPK1 (recombinant GST-RIPK1 kinase domain (residues 1-327) enzyme produced from baculovirus-transfected Sf21 cells: MW=62 kDa). Plates were placed in an ambient temperature humidified chamber for a 30 minutes pre-incubation with compound. Subsequently, each reaction was initiated by the addition of 1 μL 1× assay buffer containing […] dephosphorylated-MBP substrate. The final reaction in each well of 3 μL consists of 25 nM of GST-RIPK1, 300 µM ATP, and 3 μM dephosphorylated-MBP. Kinase reactions were allowed to proceed for 150 minutes prior to adding ADP-Glo reagents per Promega's outlined kit protocol. Dose-response curves were generated by plotting percent effect (% product conversion: Y-axis) vs. Logio compound concentrations (X-axis). EC50 values were calculated using a non-linear regression, four-parameters sigmoidal dose-response model and are provided for example compounds of the invention (labeled “RIPK1 EC50 (nM)” throughout the above examples).
With CCCOc1ccnc(N2CCC3(CC2)CN2CC[C@@H](c4cc(F)cc(F)c4)N2C3=O)c1 [Example 2.24, (S)-7′-(3,5-difluorophenyl)-1-(4-propoxypyridin-2-yl)dihydro-l′H,3′H,5′H-spiro[piperidine-4,2′-pyrazolo[1,2-a]pyrazol]-1′-one] the EC50 was 907 nM. O=C(c1cc(F)c(F)c(F)c1)N1CCC2(CC1)CN1CC[C@@H](c3cc(F)cc(F)c3)N1C2=O [Example 4.10, (S)-7′-(3,5-difluorophenyl)-1-(3,4,5-trifluorobenzoyl) dihydro-1′H,3′H,5′H-spiro[piperidine-4,2′-pyrazolo[1,2-a]pyrazol]-l′-one] gave an EC50 of 67 nM. Work on O=C1N2[C@H](c3cc(F)cc(F)c3)CCN2CC12CCN(c1cc(-c3cnn(C(F)F)c3)ncn1)CC2 [Example 1.87, (S)-1-(6-(1-(difluoromethyl)-1H-pyrazol-4-yl)pyrimidin-4-yl)-7′-(3,5-difluorophenyl)dihydro-1′H,3′H,5′H-spiro[piperidine-4,2′-pyrazolo[1,2-a]pyrazol]-1′-one] yielded an EC50 of 6 nM. O=C(c1cc(F)cc(F)c1F)N1CCC2(CC1)CN1CC[C@@H](c3cc(F)cc(F)c3)N1C2=O [Example 4.12, (S)-7′-(3,5-difluorophenyl)-1-(2,3,5-trifluorobenzoyl) dihydro-1′H,3′H,5′H-spiro[piperidine-4,2′-pyrazolo[1,2-a]pyrazol]-l′-one] was tested, and the EC50 was 26 nM. CC(C)c1nccc(N2CCC3(CC2)CN2CC[C@@H](c4cc(F)cc(F)c4)N2C3=O)n1 [Example 1.49, (S)-7′-(3,5-difluorophenyl)-1-(2-isopropylpyrimidin-4-yl)dihydro-1′H,3′H,5′H-spiro[piperidine-4,2′-pyrazolo[1,2-a]pyrazol]-1′-one] gave an EC50 of 295 nM. In the case of CSc1cnc(N2CCC3(CC2)CN2CC[C@@H](c4cc(F)cc(F)c4)N2C3=O)cn1 [Example 2.20, (S)-7′-(3,5-difluorophenyl)-1-(5-(methylthio)pyrazin-2-yl)dihydro-l′H,3′H,5′H-spiro[piperidine-4,2′-pyrazolo[1,2-a]pyrazol]-1′-one], the EC50 is reported as 30 nM. For O=C1N2[C@H](c3cc(F)cc(F)c3)CCN2CC12CCN(c1nccc(C(F)(F)F)n1)CC2 [Example 1.92, (S)-7′-(3,5-difluorophenyl)-1-(4-(trifluoromethyl)pyrimidin-2-yl)dihydro-1′H,3′H,5′H-spiro[piperidine-4,2′-pyrazolo[1,2-a]pyrazol]-1′-one], the EC50 was 91 nM. For N#Cc1ccc(N2CCC3(CC2)CN2CC[C@@H](c4cc(F)cc(F)c4)N2C3=O)c2ccnn12 [Example 2.2, (S)-4-(7′-(3,5-difluorophenyl)-1′-oxodihydro-l′H,3′H,5′H-spiro[piperidine-4,2′-pyrazolo[1,2-a]pyrazol]-1-yl)pyrazolo[1,5-a]pyridine-7-carbonitrile], the EC50 was 9 nM. COc1nc(N2CCC3(CC2)CN2CC[C@@H](c4cc(F)cc(F)c4)N2C3=O)ncc1C [Example 1.23, (S)-7′-(3,5-difluorophenyl)-1-(4-methoxy-5-methylpyrimidin-2-yl)dihydro-1′H,3′H,5′H-spiro[piperidine-4,2′-pyrazolo[1,2-a]pyrazol]-1′-one] was tested, and the EC50 was 68 nM. CN(C)c1cc(Cl)nc(N2CCC3(CC2)CN2CC[C@@H](c4cc(F)cc(F)c4)N2C3=O)n1 [Example 1.61, (S)-1-(4-chloro-6-(dimethylamino)pyrimidin-2-yl)-7′-(3,5-difluorophenyl)dihydro-1′H,3′H,5′H-spiro[piperidine-4,2′-pyrazolo[1,2-a]pyrazol]-1′-one] was tested, and the EC50 was 904 nM. O=C1N2[C@H](c3cc(F)cc(F)c3)CCN2CC12CCN(c1ccc(OC(F)F)cn1)CC2 [Example 2.21, (S)-1-(5-(difluoromethoxy)pyridin-2-y1)-7′-(3,5-difluorophenyl)dihydro-1′H,3′H,5′H-spiro[piperidine-4,2′-pyrazolo[1,2-a]pyrazol]-1′-one] was tested, and the EC50 was 28 nM. For O=C1N2[C@H](c3cc(F)cc(F)c3)CCN2CC12CCN(c1ncnc3sccc13)CC2 [Example 1.68, (S)-7′-(3,5-difluorophenyl)-1-(thieno[2,3-d]pyrimidin-4-yl)dihydro-1′H,3′H,5′H-spiro [piperidine-4,2′-pyrazolo[1,2-a]pyrazol]-1′-one], the EC50 was 24 nM. CCc1cnc(N2CCC3(CC2)CN2CC[C@@H](c4cc(F)cc(F)c4)N2C3=O)nc1 [Example 1.28, (S)-7′-(3,5-difluorophenyl)-1-(5-ethylpyrimidin-2-yl)dihydro-1′H,3′H,5′H-spiro[piperidine-4,2′-pyrazolo[1,2-a]pyrazol]-1′-one] showed an EC50 of 409 nM. Cc1ccn(-c2ccnc(N3CCC4(CC3)CN3CC[C@@H](c5cc(F)cc(F)c5)N3C4=O)c2)n1 [Example 2.5, (S)-7′-(3,5-difluorophenyl)-1-(4-(3-methyl-1H-pyrazol-1-yl)pyridin-2-yl)dihydro-1′H,3′H,5′H-spiro[piperidine-4,2′-pyrazolo[1,2-a]pyrazol]-1′-one] showed an EC50 of 118 nM. Work on O=C(c1ccc(Cl)c(F)c1)N1CCC2(CC1)CN1CC[C@@H](c3cc(F)cc(F)c3)N1C2=O [Example 4.23, (S)-1-(4-chloro-3-fluorobenzoyl)-7′-(3,5-difluorophenyl) dihydro-1′H,3′H,5′H-spiro[piperidine-4,2′-pyrazolo[1,2-a]pyrazol]-l′-one] yielded an EC50 of 23 nM. For N#Cc1cnc(N2CCC3(CC2)CN2CC[C@@H](c4cc(F)cc(F)c4)N2C3=O)cn1 [Example 2.19, (S)-5-(7′-(3,5-difluorophenyl)-1′-oxodihydro-l′H,3′H,5′H-spiro[piperidine-4,2′-pyrazolo[1,2-a]pyrazol]-1-y1)pyrazine-2-carbonitrile], the EC50 was 27 nM. Molecule COc1cc(N2CCC3(CC2)CN2CC[C@@H](c4cc(F)cc(F)c4)N2C3=O)ccn1 [Example 1.89, (S)-7′-(3,5-difluorophenyl)-1-(2-methoxypyridin-4-yl)dihydro-1′H,3′H,5′H-spiro[piperidine-4,2′-pyrazolo[1,2-a]pyrazol]-1′-one] has an EC50 of 24 nM. N#Cc1cccc(N2CCC3(CC2)CN2CC[C@@H](c4cc(F)cc(F)c4)N2C3=O)n1 [Example 1.58, (S)-6-(7′-(3,5-difluorophenyl)-1′-oxodihydro-1′H,3′H,5′H-spiro[piperidine-4,2′-pyrazolo[1,2-a]pyrazol]-1-yl)picolinonitrile] gave an EC50 of 34 nM. O=C(c1ccccc1)N1CCC2(CC1)CN1CC[C@@H](c3cc(F)cc(F)c3)N1C2=O [Example 5.1] was tested, and the EC50 was 13 nM. Work on Cc1cc2c(N3CCC4(CC3)CN3CC[C@@H](c5cc(F)cc(F)c5)N3C4=O)ncnc2s1 [Example 1.67, (S)-7′-(3,5-difluorophenyl)-1-(6-methylthieno[2,3-d]pyrimidin-4-yl)dihydro-1′H,3′H,5′H-spiro[piperidine-4,2′-pyrazolo[1,2-a]pyrazol]-1′-one] yielded an EC50 of 38 nM. N#Cc1cnc(N2CCC3(CC2)CN2CC[C@@H](c4cc(F)cc(F)c4)N2C3=O)nc1 [Example 1.76, (S)-2-(7′-(3,5-difluorophenyl)-1′-oxodihydro-1′H,3′H,5′H-spiro[piperidine-4,2′-pyrazolo[1,2-a]pyrazol]-1-yl)pyrimidine-5-carbonitrile] was tested, and the EC50 was 35 nM. Work on O=C1N2[C@H](c3cc(F)cc(F)c3)CCN2CC12CCN(c1cc(-c3ccccc3)ncn1)CC2 [Example 1.35, (S)-7′-(3,5-difluorophenyl)-1-(6-phenylpyrimidin-4-yl)dihydro-1′H,3′H,5′H-spiro[piperidine-4,2′-pyrazolo[1,2-a]pyrazol]-1′-one] yielded an EC50 of 15 nM. With Cc1csc2ncnc(N3CCC4(CC3)CN3CC[C@@H](c5cc(F)cc(F)c5)N3C4=O)c12 [Example 1.73, (S)-7′-(3,5-difluorophenyl)-1-(5-methylthieno[2,3-d]pyrimidin-4-yl)dihydro-1′H,3′H,5′H-spiro[piperidine-4,2′-pyrazolo[1,2-a]pyrazol]-l′-one] the EC50 was 4 nM. N#Cc1ccc(N2CCC3(CC2)CN2CC[C@@H](c4cc(F)cc(F)c4)N2C3=O)nc1 [Example 1.50, (S)-6-(7′-(3,5-difluorophenyl)-1′-oxodihydro-1′H,3′H,5′H-spiro[piperidine-4,2′-pyrazolo[1,2-a]pyrazol]-1-yl)nicotinonitrile] was tested, and the EC50 was 64 nM. COc1cc(N2CCC3(CC2)CN2CC[C@@H](c4cc(F)cc(F)c4)N2C3=O)ncn1 [Example 1.83, (S)-7′-(3,5-difluorophenyl)-1-(6-methoxypyrimidin-4-yl)dihydro-1′H,3′H,5′H-spiro[piperidine-4,2′-pyrazolo[1,2-a]pyrazol]-1′-one] gave an EC50 of 28 nM. With CCc1nccc(N2CCC3(CC2)CN2CC[C@@H](c4cc(F)cc(F)c4)N2C3=O)n1 [Example 1.20, (S)-7′-(3,5-difluorophenyl)-1-(2-ethylpyrimidin-4-yl)dihydro-1′H,3′H,5′H-spiro[piperidine-4,2′-pyrazolo[1,2-a]pyrazol]-1′-one] the EC50 was 159 nM.
